This is an account of results in patent US11773420B2, “Process for enzymatic hydrolysis of lignocellulosic material and fermentation of sugars” (VERSALIS S.P.A., priority 2014, dated 2023).

The assay deals with cellulase enzyme cocktail TEC210. Nature of the assay: Effect of gluconic acid on enzymatic hydrolysis of pretreated corn stover by TEC210. The class given is biochemical, Rasamsonia. The conditions noted are these: for Glucose release (in %): 6% w/w dm, pH 4.5, 62° C., 50 hours, 5 mg TEC210/g dm. The procedure: Twenty grams of pretreated corn stover were incubated in a 50 ml Greiner test tube for 50 hours at a dry matter level of 6% w/w, pH 4.5 at 62° C. in the presence of 5 mg of the cellulase enzyme cocktail TEC210 per gram of dry matter and in the presence of 0, 2, 4, 6, or 8 g/l gluconic acid to determine the inhibiting effect of gluconic acid on the hydrolysis of glucan in lignocellulosic feedstock. The experiment is performed at maximum oxygen saturation.
Samples were taken after 50 hours of incubation and the samples were centrifuged for further analysis in an Eppendorf centrifuge type 5810 for 8 minutes at 4000 rpm. The glucose concentration was measured in the supernatant of each sample by means of HPLC using a Bio-Rad HPX87H column. The glucose release as presented in Table 3 is a direct measure for the enzymatic hydrolysis (glucan hydrolysis). A gluconic acid level of 2 g/l in the supernatant corresponds with 89 g/kg glucan in the lignocellulosic material. This can be calculated as described above with a density of 1.02 kg/I, a pellet factor of 2% and a glucan content of 21.6 g glucan/kg hydrolysate.

With `O=C(O)[C@H](O)[C@@H](O)[C@H](O)[C@H](O)CO` [Gluconic acid, gluconic acid], the “Glucose release (in %)” value runs as follows: (gluconic acid added 2 g/l (89 g/kg glucan)) 90%; (gluconic acid added 4 g/l (178 g/kg glucan)) 82%; (gluconic acid added 6 g/l (267 g/kg glucan)) 79%; (gluconic acid added 8 g/l (356 g/kg glucan)) 77%. Besides, the “effect on glucan hydrolysis” value (higher concentrations of gluconic acid) was “negative effect on glucan hydrolysis”.
